Experimental findings from US20060228347A1, “Antitumor agent and dnase” (Susumu SUNAGA and SUNNYVALE COMPANY, priority 2005, published 2006) are described below.

In brackets after ≈: the same amount, converted by molar mass. Some results are limits rather than exact numbers.

Series [1] relates to HeLa cell. Put plainly: MTT method, cell proliferation inhibition by cell fractions. In kind it is cell-based. The conditions noted are these: Homo sapiens. As for the experimental part:
(§1) More particularly, cells for evaluation, i.e., a cancer cell line (for example, an MKN-28 cell or a HeLa cell) and a normal cell (for example, an MRC-5 cell or an HEF cell) are prepared as cell suspensions. An appropriately diluted series (for example, 1/2, 1/4, 1/8, 1/16, and 1/32) of a DNase solution are poured into each well of a microplate. After each cell suspension is further added into each well, the cells are cultivated for a predetermined period (for example, 4 days). After the cultivation, an MTT [3-(4,5-dimethylthiazol-2-yl)-2,5-diphenyltetrazolium bromide; Sigma chemical Co.] solution is added into each well. After an incubation for a predetermined period (for example, at 37° C. for 4 hours), a culture supernatant is removed from each well, and then an MTT formazan elution liquid [acidified isopropanol containing 10% (V/V) Triton X-100] is added into each well. […] The IC50 value is indicated as a dilution of a test liquid or a concentration (for example, μg/mL) of a test drug which can inhibit a proliferation of a control cell (without an antitumor agent) to 50%. When the dilution is high, or when the drug concentration is low, it can be judged that the drug (substance) tested has a high activity.
(§2) As cells for evaluation, the MKN-28 cell and the HeLa cell were used as cancer cell lines, and the MRC-5 cell was used as a normal cell. After each cell line was cultured for 3 days, cells were treated with trypsin, and dispersed cells were washed with PBS by centrifugation. Washed cells were suspended in a Dulbecco's modified Eagle's MEM medium containing 8% fetal calf serum (hereinafter referred to as GM), and counted with a hemocytometer. Each cell suspension was adjusted with the GM to cell densities of 5000 cells/50 μL and 2500 cells/50 μL (cancer cell lines) or 10000 cells/50 μL and 5000 cells/50 μL (MRC-5 cell).
(§3) To each well in a 96-well flat-bottomed plate, diluted series (undiluted, 1/2, 1/4, 1/8, 1/16, and 1/32; 50 μL/well) of each centrifugal supernatant or centrifugal pellet prepared in Example 1 were added. Further, each cell suspension was added to each well, and the plate was incubated at 37° C. in a CO2 incubator. After 3 or 4 days from the beginning of the incubation, 20 μL/well of an MTT solution was added to each well, and the plate was incubated at 37° C. for 3 hours. The culture supernatant was removed from each well, and 100 μL of an MTT formazan elution liquid was added to each well.
(§4) As a control, PBS was used instead of the diluted series of each centrifugal supernatant or centrifugal pellet. For comparison, 5-fold-diluted series (100 μg/mL, 20 μg/mL, 4 μg/mL, 0.8 μg/mL, 0.16 μg/mL, and 0.032 μg/mL) of 5-fluorouracil (5-FU) were used instead of the diluted series of each centrifugal supernatant or centrifugal pellet.
(§5) The IC50 values when the cancer cell line MKN-28 was used as the cell for evaluation and the centrifugal supernatant and the centrifugal pellet derived from the MKN-28 cell were used as the cell fraction are shown in Table 6. Each IC50 value shown in Table 6 (or Tables 7 to 10 described below) is an average of plural (two to four) values. Each IC50 value is shown as a dilution (i.e., relative value) of a test liquid [or a concentration of a test drug (μg/mL for 5-FU)] which can inhibit a proliferation of a control cell (without an antitumor agent) to 50%.
A general note: Formazan colour is commonly taken as a measure of viable cells.

Series [2] concerns MKN-28 cell. The description is as above. The following applies: Homo sapiens. In kind it is cell-based. On the procedure: as §1, §2, §3, §4, §5
Series [3] relates to MRC-5 cell. The series is described as above. In kind it is cell-based. The conditions noted are these: Homo sapiens. As for the experimental part: as §1, §2, §3, §4, §5
Series [4] deals with MKN-28 cell. Nature of the series: Appearance of mitotic (round) cells after colcemid treatment. The series is classed as cell-based, human. As for the experimental part:
(§6) A synthetic colchicine, colcemid (J. Radiat. Res., 14, 258-270, 1971) was used to prepare the M-phase cell. The optimum conditions for obtaining the living M-phase cell, and the conditions for evaluation the activity of inhibiting a cell proliferation by the MTT method were examined.
(§7) More particularly, cells were cultivated in a 25-cm^2 culture flask (Falcon, 3014, 50 mL) for 3 days. After the mono-layered cells were washed, a growth medium supplemented with 0.025 μg/mL of colcemid (Nakarai, 09356-74) was added, and incubated at 37° C. for 6 hours. After the cells were washed gently, the culture flask was gently shaken to collect cells removed from the bottom of the flask. The collected cells were washed with the medium (GM) by centrifugation to remove colcemid. The washed cells were suspended in the growth medium and incubated.
(§8) The incubated cells were observed under a microscope at intervals of an hour; an appearance of mitotic cells is shown in Table 19. The appearance of mitotic cells was judged by an appearance of round cells as an index. Although almost cultured cells adhere to the glass surface and are thinly spread, mitotic cells become round and tend to leave the glass surface. Therefore, an appearance of round cells which tend to leave the monolayer was used as the index.
(§9) In Table 19, “−” means that the round cells appeared at a percentage of 0% with respect to the whole cells, “±” means that the round cells appeared at a percentage less than 5%, and “+” means that the round cells appeared at a percentage from 5% to less than 30%. The numbers in parentheses of “Round cells/flask” are numbers of positive cells strained by trypan blue.

For series [5], the system named is MRC-5 cell. The description is as above. In kind it is cell-based, human. As for the experimental part:
as §6, §7, §8, §9

The IC50 is the point on the concentration scale where inhibition reaches its midpoint. A high value points to a need for much substance. Regarding `O=c1[nH]cc(F)c(=O)[nH]1` [5-FU, 5-fluorouracil], the IC50 in series [1] (72 h, Table 7, HeLa (3 days), 2500 cells/well) came to 5 µg/mL (≈ 38.4 µM); in series [1] (72 h, Table 7, HeLa (3 days), 5000 cells/well) it was 7.3 µg/mL (≈ 56.1 µM); in series [1] (72 h, Table 9, 3-day cultivation, 2500 cells/well) it was 7 µg/mL (≈ 53.8 µM); in series [1] (72 h, Table 9, 3-day cultivation, 5000 cells/well), 12 µg/mL (≈ 92.3 µM); in series [1] (96 h, Table 7, HeLa (4 days), 2500 cells/well) it was 3.6 µg/mL (≈ 27.7 µM); in series [1] (96 h, Table 7, HeLa (4 days), 5000 cells/well), 3.6 µg/mL (≈ 27.7 µM). Besides, the IC50 came to 6.2 µg/mL (≈ 47.7 µM) in series [1] (96 h, Table 10, 4-day cultivation, 2500 cells/well); 13 µg/mL (≈ 99.9 µM) in series [1] (96 h, Table 10, 4-day cultivation, 5000 cells/well); 4.6 µg/mL (≈ 35.4 µM) in series [2] (MKN-28, 72 h, Table 6, MKN (3 days), 2500 cells/well); 5.9 µg/mL (≈ 45.4 µM) in series [2] (MKN-28, 72 h, Table 6, MKN (3 days), 5000 cells/well); 4.6 µg/mL (≈ 35.4 µM) in series [2] (MKN-28, 72 h, Table 9, 3-day cultivation, MKN, 2500 cells/well); 6 µg/mL (≈ 46.1 µM) in series [2] (MKN-28, 72 h, Table 9, 3-day cultivation, MKN, 5000 cells/well). In addition, the IC50 is 3.7 µg/mL (≈ 28.4 µM) in series [2] (MKN-28, 96 h, Table 6, MKN (4 days), 2500 cells/well); 14.8 µg/mL (≈ 114 µM) in series [2] (MKN-28, 96 h, Table 6, MKN (4 days), 5000 cells/well); 4.7 µg/mL (≈ 36.1 µM) in series [2] (MKN-28, 96 h, Table 10, 4-day cultivation, MKN, 2500 cells/well); 11.6 µg/mL (≈ 89.2 µM) in series [2] (MKN-28, 96 h, Table 10, 4-day cultivation, MKN, 5000 cells/well); greater than 100 µg/mL in series [3] (MRC5, 72 h, Table 8, MRC (3 days), 5000 cells/well); greater than 100 µg/mL in series [3] (MRC5, 72 h, Table 8, MRC (3 days), 10000 cells/well). Moreover, the IC50 in series [3] (MRC5, 72 h, Table 9, 3-day cultivation, MRC, 5000 cells/well) is greater than 100 µg/mL; in series [3] (MRC5, 72 h, Table 9, 3-day cultivation, MRC, 10000 cells/well), greater than 100 µg/mL; in series [3] (MRC5, 96 h, Table 8, MRC (4 days), 5000 cells/well), 92 µg/mL (≈ 707 µM); in series [3] (MRC5, 96 h, Table 8, MRC (4 days), 10000 cells/well), greater than 100 µg/mL; in series [3] (MRC5, 96 h, Table 10, 4-day cultivation, MRC, 5000 cells/well) it was 92 µg/mL (≈ 707 µM); in series [3] (MRC5, 96 h, Table 10, 4-day cultivation, MRC, 10000 cells/well), greater than 100 µg/mL.
As for `CN[C@H]1CCc2cc(OC)c(OC)c(OC)c2-c2ccc(OC)c(=O)cc21` [colcemid], the Round cells/flask in series [4] (MKN-28) turned out to be 93000; in series [5] (MRC-5) it was 153000. Besides, the “yield of colcemid-treated cells (number of cells after the treatment/number of cells before the treatment)” value in series [4] (MKN-28) is recorded as 1.4%; in series [5] (MRC-5), 29%. Besides, the “Appearance of round cells” value is “− (the round cells appeared at a percentage of 0% with respect to the whole cells)” in series [4] (MKN-28, 1 hr, 0.025 μg/mL colcemid); “± (the round cells appeared at a percentage less than 5%)” in series [4] (MKN-28, 2 hr); “+ (the round cells appeared at a percentage from 5% to less than 30%)” in series [4] (MKN-28, 3 hr); “+ (the round cells appeared at a percentage from 5% to less than 30%)” in series [4] (MKN-28, 4 hr); “+ (the round cells appeared at a percentage from 5% to less than 30%)” in series [4] (MKN-28, 5 hr); “− (the round cells appeared at a percentage of 0% with respect to the whole cells)” in series [5] (MRC-5, 1 hr, 0.025 μg/mL colcemid). Besides, the “Appearance of round cells” value in series [5] (MRC-5, 2 hr) is “± (the round cells appeared at a percentage less than 5%)”; in series [5] (MRC-5, 3 hr), “+ (the round cells appeared at a percentage from 5% to less than 30%)”; in series [5] (MRC-5, 4 hr), “+ (the round cells appeared at a percentage from 5% to less than 30%)”; in series [5] (MRC-5, 5 hr), “+ (the round cells appeared at a percentage from 5% to less than 30%)”. For the same compound, the “Round cells/flask: positive cells strained by trypan blue” value came to 0 in series [4] (MKN-28, number in parentheses) and 0 in series [5] (MRC-5, number in parentheses).
